Assay results reported in the NIST ThermoML archive (doi:10.1016/j.jct.2010.09.003).
± gives the expanded uncertainty stated by the source.

Tests used:
[1] = Ring tensiometer
[2] = xn = mol fraction of the nth substance listed; details: Ring tensiometer

CC#N [acetonitrile]
[1]
Details | surface tension liquid-gas [mN/m]
283.15 K | 29.73 ± 0.42
298.15 K | 28.2 ± 0.41
308.15 K | 27.47 ± 0.4

CC#N [acetonitrile] + O
[2]
Details | surface tension liquid-gas [mN/m]
283.15 K, x1 = 0.0051 | 70.6 ± 0.91
283.15 K, x1 = 0.0101 | 67.18 ± 0.87
283.15 K, x1 = 0.0151 | 64.36 ± 0.83
283.15 K, x1 = 0.0217 | 61.23 ± 0.8
283.15 K, x1 = 0.0298 | 57.99 ± 0.76
283.15 K, x1 = 0.0377 | 55.36 ± 0.73
283.15 K, x1 = 0.0486 | 52.34 ± 0.69
283.15 K, x1 = 0.0593 | 49.47 ± 0.66
283.15 K, x1 = 0.0871 | 44.54 ± 0.6
283.15 K, x1 = 0.1011 | 42.3 ± 0.57
283.15 K, x1 = 0.1431 | 38.03 ± 0.52
283.15 K, x1 = 0.1615 | 35.51 ± 0.49
283.15 K, x1 = 0.1847 | 34.35 ± 0.48
283.15 K, x1 = 0.2068 | 33.9 ± 0.47
283.15 K, x1 = 0.2327 | 33.51 ± 0.47
283.15 K, x1 = 0.3098 | 32.89 ± 0.46
283.15 K, x1 = 0.3971 | 32.56 ± 0.46
283.15 K, x1 = 0.4878 | 32.29 ± 0.45
283.15 K, x1 = 0.6557 | 32.06 ± 0.45
283.15 K, x1 = 0.8056 | 31.26 ± 0.44
283.15 K, x1 = 0.9592 | 29.83 ± 0.43
298.15 K, x1 = 0.0149 | 62.36 ± 0.81
298.15 K, x1 = 0.0298 | 55.92 ± 0.73
298.15 K, x1 = 0.0516 | 49.39 ± 0.66
298.15 K, x1 = 0.0653 | 45.96 ± 0.61
298.15 K, x1 = 0.086 | 42.2 ± 0.57
298.15 K, x1 = 0.095 | 40.54 ± 0.55
298.15 K, x1 = 0.1023 | 39.63 ± 0.54
298.15 K, x1 = 0.1227 | 37.97 ± 0.52
298.15 K, x1 = 0.1403 | 36.42 ± 0.5
298.15 K, x1 = 0.157 | 35.68 ± 0.49
298.15 K, x1 = 0.1855 | 33.97 ± 0.47
298.15 K, x1 = 0.195 | 34.11 ± 0.48
298.15 K, x1 = 0.2541 | 32.92 ± 0.46
298.15 K, x1 = 0.3256 | 32.34 ± 0.45
298.15 K, x1 = 0.3959 | 31.68 ± 0.45
298.15 K, x1 = 0.4851 | 31.45 ± 0.44
298.15 K, x1 = 0.5913 | 30.95 ± 0.44
298.15 K, x1 = 0.693 | 30.37 ± 0.43
298.15 K, x1 = 0.7968 | 29.46 ± 0.42
308.15 K, x1 = 0.0217 | 60.53 ± 0.78
308.15 K, x1 = 0.0298 | 59 ± 0.77
308.15 K, x1 = 0.0377 | 55.56 ± 0.73
308.15 K, x1 = 0.0727 | 48.05 ± 0.64
308.15 K, x1 = 0.0871 | 45.83 ± 0.62
308.15 K, x1 = 0.1304 | 40.09 ± 0.55
308.15 K, x1 = 0.1431 | 38.79 ± 0.53
308.15 K, x1 = 0.1615 | 36.94 ± 0.51
308.15 K, x1 = 0.1847 | 35.7 ± 0.49
308.15 K, x1 = 0.2068 | 33.9 ± 0.47
308.15 K, x1 = 0.2327 | 33.51 ± 0.47
308.15 K, x1 = 0.3098 | 31.04 ± 0.44
308.15 K, x1 = 0.3971 | 30.05 ± 0.43
308.15 K, x1 = 0.4999 | 29.11 ± 0.42
308.15 K, x1 = 0.6557 | 28.41 ± 0.41
308.15 K, x1 = 0.7775 | 28.21 ± 0.41
308.15 K, x1 = 0.9592 | 28.05 ± 0.4

O [water]
[1]
Details | surface tension liquid-gas [mN/m]
283.15 K | 74.47 ± 0.94
298.15 K | 72.06 ± 0.92
308.15 K | 70.41 ± 0.9
